The target in experiment [1] is MEK1 (h) (Homo sapiens, UniProt Q02750). In words: MEK1 kinase activity assay. The class given is biochemical. The protocol:
The reaction is initiated by the addition of the MgATP. After incubation for 40 minutes at room temperature, 5 μL of this incubation mix is used to initiate an ERK2 (m) assay.

Experiment [2] relates to HT29 human colon cancer cells. The experiment can be described thus: Cell proliferation (MTT) assay, HT29 cells. Particulars: MTT, 48 hours. The format is cell-based. Here is the method: 6.1 Cell Proliferation (MTT) Assay Single cell suspensions of viable trypsinised cells were seeded into 96-well tissue culture plates at a density of 2×10^3 cells per well in a volume of 100 μl of a suitable culture media supplemented with heat inactivated foetal calf serum (FCS) (e.g., Dulbecco's Modified Eagles Medium (DMEM), with 10% v/v FCS, 1% L-glutamine, 2% (v/v) Hepes, and antibiotics). A set of triplicate wells was prepared for each concentration of the peptide dendrimer being tested. Additional sample wells containing untreated cells or media alone were set up in each treatment plate and processed in parallel as reference controls. A zero-time plate of untreated cells and media-alone wells was simultaneously prepared and an MTT assay carried out on this plate at the time of addition of the kinase inhibitor (i.e., polypeptide or dendrimer) to treatment plates. All plates were cultured for 24 hours before addition of the test dendrimer.
To prepare the MTT solution 100 mg of MTT (3-(4,5-dimethylthiazolyl-2)-2,5-diphenyltetrazolium bromide) (Cat #. M-128, Sigma, St Louis Mo.), is mixed with 20 ml of PBS at pH 7.4. The resulting solution is filter sterilized (0.2 μM syringe filter) and stored at 4° C. protected from light until use. MTT substrate is cleaved in growing cells to yield a water insoluble salt. After solubilisation of the salt crystals, a coloured product is produced the measurement of which allows quantitation of the proliferative activity of the cultured cells.
Appropriate concentrations of the kinase inhibitor were prepared by dilution of freshly prepared sterile 1 mM stock solutions into cell culture media to give a final well volume of 200 μl containing 10% v/v FCS. The zero-plate was processed by addition of MTT at this time. Cell culture was continued for a further 24 or 48 hours before addition of 20 μl of MTT in PBS (5 mg/ml, 0.2 um filter sterilised). The MTT cell proliferation assay measures cell proliferation rate and, in instances where cell viability is compromised, the assay indicates a comparative reduction in cell viability. After a 3 hour incubation in the presence of MTT (5% CO2 in air at 37° C.), plates were centrifuged at 450 g for 5 minutes, supernatant was removed by gentle suction and precipitated tetrazolium salt resuspended into 150 μl DMSO:glycine (0.1M glycine, 0.1M NaCl pH 10.5) (6:1 v/v) solution. Plates were gently vortexed to complete solubilisation of crystalline material and absorbance was read at 550 nm using a microplate reader. Sample data were processed to determine the comparative growth of treated samples relative to untreated controls.
HT29 cells were cultured for 48 hours in the presence of selected dendrimers and proliferation of the cells was assessed by MTT assay essentially as described in Example 6.1. The results were calculated as percentage proliferation of control cells (not treated with dendrimer).

The target in experiment [3] is c-RAF (h) (Homo sapiens, UniProt P04049). The experiment can be described thus: c-RAF kinase activity assay. The class given is biochemical. The protocol:
(§1) In a final reaction volume of 25 μL, c-RAF (h) (5-10 mU) is incubated with 25 mM Tris pH 7.5, 0.02 mM EGTA, 0.66 mg/mL myelin basic protein, 10 mM MgAcetate and [γ-33P-ATP] (specific activity approx. 500 cpm/pmol, concentration as required). The reaction is initiated by the addition of the MgATP mix. After incubation for 40 minutes at room temperature, the reaction is stopped by the addition of 5 μL of a 3% phosphoric acid solution. 10 μL of the reaction is then spotted onto a P30 filtermat and washed three times for 5 minutes in 75 mM phosphoric acid and once in methanol prior to drying and scintillation counting.

The target in experiment [4] is PI3K beta (Homo sapiens, UniProt P42338). The experiment can be described thus: PI3K HTRF activity assay. The format is biochemical. The protocol:
In a final reaction volume of 20 μL, the test PI3K is incubated in assay buffer containing 10 μM phosphatidylinositol-4,5-bisphosphate and MgATP. The reaction is initiated by the addition of the MgATP mix. After incubation for 30 minutes at room temperature, the reaction is stopped by the addition of 5 μL of stop solution containing EDTA and biotinylated phosphatidylinositol-3,4,5-trisphosphate. Finally, 5 μL of detection buffer is added (containing europium-labelled anti-GST monoclonal antibody, GST-tagged GRP1 PH domain and streptavidin-allophycocyanin). The test plate is then read in time-resolved fluorescence mode and the homogenous time-resolved fluorescence (HTRF) signal is determined according to the formula HTRF=10000×(Em665 nm/Em620 nm).

In experiment [5] the target is PKB beta (Homo sapiens, UniProt P31751). In words: PKB kinase activity assay. The class given is biochemical. The protocol:
(§2) In a final reaction volume of 25 μL, PKB(h) (5-10 mU) is incubated with 8 mM MOPS pH 7.0, 0.2 mM EDTA, 30 μM GRPRTSSFAEGKK (SEQ ID No. 26), 10 mM MgAcetate and [γ-33P-ATP] (specific activity approx. 500 cpm/pmol, concentration as required). The reaction is initiated by the addition of the MgATP mix. After incubation for 40 minutes at room temperature, the reaction is stopped by the addition of 5 μL of a 3% phosphoric acid solution. 10 μL of the reaction mixture is then spotted onto a P30 filtermat and washed three times for 5 minutes in 75 mM phosphoric acid and once in methanol prior to drying and scintillation counting.

Experiment [6] concerns the target PKB gamma (Homo sapiens, UniProt Q9Y243). In words: PKB kinase activity assay. The class given is biochemical. Here is the method:
as §2

Experiment [7] concerns the target human ERK2 (Homo sapiens, UniProt P28482). The experiment can be described thus: ERK2 kinase activity assay (cell-free). The format is biochemical. The protocol:
as §1, with “human ERK2” for “c-RAF (h)”, “0.33” for “0.66”

PKB gamma, sequence (Q9Y243 whole entry): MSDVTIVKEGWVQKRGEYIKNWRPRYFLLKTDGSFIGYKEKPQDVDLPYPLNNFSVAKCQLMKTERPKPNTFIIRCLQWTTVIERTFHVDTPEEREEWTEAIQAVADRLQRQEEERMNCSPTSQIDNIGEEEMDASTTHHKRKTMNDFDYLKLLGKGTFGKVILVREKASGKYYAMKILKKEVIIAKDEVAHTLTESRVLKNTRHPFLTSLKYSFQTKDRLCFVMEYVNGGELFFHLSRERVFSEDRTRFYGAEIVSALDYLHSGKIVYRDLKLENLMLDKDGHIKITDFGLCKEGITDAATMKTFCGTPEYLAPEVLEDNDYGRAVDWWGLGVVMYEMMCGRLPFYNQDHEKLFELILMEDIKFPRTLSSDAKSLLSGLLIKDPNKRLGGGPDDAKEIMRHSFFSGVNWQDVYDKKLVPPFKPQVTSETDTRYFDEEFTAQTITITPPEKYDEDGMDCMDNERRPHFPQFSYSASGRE
PKB beta, sequence (P31751 whole entry): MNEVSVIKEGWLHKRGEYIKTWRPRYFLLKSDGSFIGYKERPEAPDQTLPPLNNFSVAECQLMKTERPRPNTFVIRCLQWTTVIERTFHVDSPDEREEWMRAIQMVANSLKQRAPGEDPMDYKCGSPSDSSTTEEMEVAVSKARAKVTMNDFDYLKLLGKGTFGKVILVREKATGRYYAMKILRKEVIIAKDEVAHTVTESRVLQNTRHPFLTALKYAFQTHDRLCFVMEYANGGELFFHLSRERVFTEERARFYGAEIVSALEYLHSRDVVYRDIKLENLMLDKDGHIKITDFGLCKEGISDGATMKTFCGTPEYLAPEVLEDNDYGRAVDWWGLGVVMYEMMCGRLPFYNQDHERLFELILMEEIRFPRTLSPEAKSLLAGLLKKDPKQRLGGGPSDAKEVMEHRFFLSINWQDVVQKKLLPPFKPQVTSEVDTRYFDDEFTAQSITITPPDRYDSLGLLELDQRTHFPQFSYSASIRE
PI3K beta, sequence (P42338 whole entry, species assumed, the tested form may be a part): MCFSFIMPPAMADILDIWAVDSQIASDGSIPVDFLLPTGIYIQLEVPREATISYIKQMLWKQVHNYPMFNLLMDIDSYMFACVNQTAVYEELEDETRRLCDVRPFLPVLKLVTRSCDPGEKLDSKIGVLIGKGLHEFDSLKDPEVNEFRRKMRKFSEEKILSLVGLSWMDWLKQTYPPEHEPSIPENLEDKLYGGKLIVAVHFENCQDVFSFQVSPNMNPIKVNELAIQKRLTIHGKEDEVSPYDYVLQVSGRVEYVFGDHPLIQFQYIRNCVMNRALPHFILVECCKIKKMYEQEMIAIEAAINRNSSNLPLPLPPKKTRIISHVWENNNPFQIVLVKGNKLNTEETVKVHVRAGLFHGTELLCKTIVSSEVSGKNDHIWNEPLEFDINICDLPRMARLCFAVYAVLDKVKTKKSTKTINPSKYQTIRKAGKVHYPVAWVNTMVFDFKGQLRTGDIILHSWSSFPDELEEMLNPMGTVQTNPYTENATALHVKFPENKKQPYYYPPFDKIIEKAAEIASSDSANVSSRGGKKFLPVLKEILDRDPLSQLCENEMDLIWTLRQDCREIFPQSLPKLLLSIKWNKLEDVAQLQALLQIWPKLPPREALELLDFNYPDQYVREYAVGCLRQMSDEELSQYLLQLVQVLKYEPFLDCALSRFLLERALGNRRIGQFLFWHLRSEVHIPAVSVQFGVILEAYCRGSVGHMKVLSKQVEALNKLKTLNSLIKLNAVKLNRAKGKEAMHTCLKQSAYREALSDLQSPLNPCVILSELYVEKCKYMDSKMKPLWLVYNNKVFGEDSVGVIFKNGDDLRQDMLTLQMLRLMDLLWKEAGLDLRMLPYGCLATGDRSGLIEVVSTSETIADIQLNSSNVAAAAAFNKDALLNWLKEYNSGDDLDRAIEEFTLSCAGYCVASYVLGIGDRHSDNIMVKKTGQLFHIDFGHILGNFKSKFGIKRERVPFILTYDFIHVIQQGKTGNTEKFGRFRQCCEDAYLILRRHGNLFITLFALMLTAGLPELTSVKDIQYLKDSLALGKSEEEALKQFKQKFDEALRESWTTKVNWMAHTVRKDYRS
PI3K beta, sequence (P27986 whole entry partner, species assumed, the tested form may be a part): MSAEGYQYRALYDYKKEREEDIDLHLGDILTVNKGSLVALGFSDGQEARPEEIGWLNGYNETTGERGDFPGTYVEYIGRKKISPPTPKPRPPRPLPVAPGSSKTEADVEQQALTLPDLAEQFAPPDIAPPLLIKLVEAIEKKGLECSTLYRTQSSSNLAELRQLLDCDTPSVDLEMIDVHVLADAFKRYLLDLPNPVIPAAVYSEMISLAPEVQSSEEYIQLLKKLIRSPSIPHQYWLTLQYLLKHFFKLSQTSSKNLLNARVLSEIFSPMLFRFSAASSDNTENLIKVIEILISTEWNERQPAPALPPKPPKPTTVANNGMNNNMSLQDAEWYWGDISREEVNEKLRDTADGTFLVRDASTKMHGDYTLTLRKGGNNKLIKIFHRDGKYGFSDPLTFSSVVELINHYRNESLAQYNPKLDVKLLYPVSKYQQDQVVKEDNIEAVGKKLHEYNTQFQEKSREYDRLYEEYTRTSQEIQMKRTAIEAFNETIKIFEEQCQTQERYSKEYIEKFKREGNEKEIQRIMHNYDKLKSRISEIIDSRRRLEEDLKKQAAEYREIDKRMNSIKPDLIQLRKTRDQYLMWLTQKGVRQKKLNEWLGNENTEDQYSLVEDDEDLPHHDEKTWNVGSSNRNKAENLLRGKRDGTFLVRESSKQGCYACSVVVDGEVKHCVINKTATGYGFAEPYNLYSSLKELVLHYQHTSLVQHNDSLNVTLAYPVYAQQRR
human ERK2, sequence (P28482 whole entry): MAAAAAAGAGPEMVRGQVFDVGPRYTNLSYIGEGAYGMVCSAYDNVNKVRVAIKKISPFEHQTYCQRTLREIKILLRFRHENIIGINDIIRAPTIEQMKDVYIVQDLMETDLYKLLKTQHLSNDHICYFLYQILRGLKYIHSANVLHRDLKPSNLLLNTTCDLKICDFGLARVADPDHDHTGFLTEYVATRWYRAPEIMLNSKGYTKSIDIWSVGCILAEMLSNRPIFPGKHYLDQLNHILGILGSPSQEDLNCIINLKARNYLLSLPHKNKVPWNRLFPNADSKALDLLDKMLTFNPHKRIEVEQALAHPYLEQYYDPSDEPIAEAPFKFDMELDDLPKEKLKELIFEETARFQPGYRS

Take `CC(C)C[C@H](NC(=O)[C@@H]1CCCN1C(=O)[C@H](CC(N)=O)NC(=O)[C@H](CCCCN)NC(=O)[C@H](C)NC(=O)[C@H](CCCCN)NC(=O)[C@H](CO)NC(=O)[C@@H](N)CCCNC(=N)N)C(=O)N[C@@H](Cc1ccc(O)cc1)C(=O)N[C@@H](CCCNC(=N)N)C(=O)NCCCC[C@H](NC(=O)[C@H](CCCCNC(=O)[C@H](CCCCNC(=O)[C@H](CCCNC(=N)N)NC(=O)[C@H](Cc1ccc(O)cc1)NC(=O)[C@H](CC(C)C)NC(=O)[C@@H]1CCCN1C(=O)[C@H](CC(N)=O)NC(=O)[C@H](CCCCN)NC(=O)[C@H](C)NC(=O)[C@H](CCCCN)NC(=O)[C@H](CO)NC(=O)[C@@H](N)CCCNC(=N)N)NC(=O)[C@H](CCCNC(=N)N)NC(=O)[C@H](Cc1ccc(O)cc1)NC(=O)[C@H](CC(C)C)NC(=O)[C@@H]1CCCN1C(=O)[C@H](CC(N)=O)NC(=O)[C@H](CCCCN)NC(=O)[C@H](C)NC(=O)[C@H](CCCCN)NC(=O)[C@H](CO)NC(=O)[C@@H](N)CCCNC(=N)N)NC(=O)[C@H](CCCCNC(=O)[C@H](CCCNC(=N)N)NC(=O)[C@H](Cc1ccc(O)cc1)NC(=O)[C@H](CC(C)C)NC(=O)[C@@H]1CCCN1C(=O)[C@H](CC(N)=O)NC(=O)[C@H](CCCCN)NC(=O)[C@H](C)NC(=O)[C@H](CCCCN)NC(=O)[C@H](CO)NC(=O)[C@@H](N)CCCNC(=N)N)NC(=O)[C@H](CCCNC(=N)N)NC(=O)[C@H](Cc1ccc(O)cc1)NC(=O)[C@H](CC(C)C)NC(=O)[C@@H]1CCCN1C(=O)[C@H](CC(N)=O)NC(=O)[C@H](CCCCN)NC(=O)[C@H](C)NC(=O)[C@H](CCCCN)NC(=O)[C@H](CO)NC(=O)[C@@H](N)CCCNC(=N)N)C(=O)NCCCC[C@H](NC(=O)[C@H](CCCCNC(=O)[C@H](CCCNC(=N)N)NC(=O)[C@H](Cc1ccc(O)cc1)NC(=O)[C@H](CC(C)C)NC(=O)[C@@H]1CCCN1C(=O)[C@H](CC(N)=O)NC(=O)[C@H](CCCCN)NC(=O)[C@H](C)NC(=O)[C@H](CCCCN)NC(=O)[C@H](CO)NC(=O)[C@@H](N)CCCNC(=N)N)NC(=O)[C@H](CCCCNC(=O)[C@H](CCCCNC(=O)[C@H](CCCNC(=N)N)NC(=O)[C@H](Cc1ccc(O)cc1)NC(=O)[C@H](CC(C)C)NC(=O)[C@@H]1CCCN1C(=O)[C@H](CC(N)=O)NC(=O)[C@H](CCCCN)NC(=O)[C@H](C)NC(=O)[C@H](CCCCN)NC(=O)[C@H](CO)NC(=O)[C@@H](N)CCCNC(=N)N)NC(=O)[C@H](CCCNC(=N)N)NC(=O)[C@H](Cc1ccc(O)cc1)NC(=O)[C@H](CC(C)C)NC(=O)[C@@H]1CCCN1C(=O)[C@H](CC(N)=O)NC(=O)[C@H](CCCCN)NC(=O)[C@H](C)NC(=O)[C@H](CCCCN)NC(=O)[C@H](CO)NC(=O)[C@@H](N)CCCNC(=N)N)NC(=O)[C@H](CCCCNC(=O)[C@H](CCCNC(=N)N)NC(=O)[C@H](Cc1ccc(O)cc1)NC(=O)[C@H](CC(C)C)NC(=O)[C@@H]1CCCN1C(=O)[C@H](CC(N)=O)NC(=O)[C@H](CCCCN)NC(=O)[C@H](C)NC(=O)[C@H](CCCCN)NC(=O)[C@H](CO)NC(=O)[C@@H](N)CCCNC(=N)N)NC(=O)[C@H](CCCNC(=N)N)NC(=O)[C@H](Cc1ccc(O)cc1)NC(=O)[C@H](CC(C)C)NC(=O)[C@@H]1CCCN1C(=O)[C@H](CC(N)=O)NC(=O)[C@H](CCCCN)NC(=O)[C@H](C)NC(=O)[C@H](CCCCN)NC(=O)[C@H](CO)NC(=O)[C@@H](N)CCCNC(=N)N)C(=O)NCCC(N)=O` [Dend 10-10(4)]: the inhibition at 1 µM came to 83% in experiment [1] (dendrimer conc. 1 μM, read-out: Percentage (%) kinase inhibition MEK1); 71% in experiment [3] (dendrimer conc. 1 μM, read-out: Percentage (%) kinase inhibition c-RAF); 61% in experiment [4] (dendrimer conc. 1 μM, read-out: Percentage (%) kinase inhibition PI3K P110β); 70% in experiment [5] (dendrimer conc. 1 μM, read-out: Percentage (%) kinase inhibition PKB beta); 99% in experiment [6] (dendrimer conc. 1 μM, read-out: Percentage (%) kinase inhibition PKB gamma). The “dendrimer concentration required for total kill, HT29 cells” value in experiment [2] was determined as 10 µM. Also, the “inhibition of proliferation of HT29 cells” value in experiment [2] is recorded as “inhibited”. Besides, the “PIK3 beta % activity relative to control” value in experiment [4] (final concentration 50 μM) is listed as 83%. The remaining activity at 50 µM in experiment [7] (final concentration 50 μM, read-out: ERK2 % activity relative to control) is 47%.

On to “Dend 10-10(4) whose RSKAKNPLYR peptides are entirely D-amino acids and pegylated with two ethylene glycol units [Dend 10-10(4)DP]”, for which the “% Kinase inhibition MEK1” value in experiment [1] (20 μM, relative to control) is reported as 90%. Moreover, the “Percentage (%) kinase inhibition MEK1” value in experiment [1] (dendrimer conc. 1 μM) turned out to be 76%; in experiment [1] (dendrimer conc. 2 μM) it was 88%; in experiment [1] (dendrimer conc. 250 nm) it was 2%; in experiment [1] (dendrimer conc. 500 nm) it was 34%. Besides, the “inhibition of proliferation of HT29 cells” value in experiment [2] is given as “substantially greater inhibition of proliferation”. The “% Kinase inhibition c-RAF” value in experiment [3] (20 μM, relative to control) came out at 93%. Besides, the “Percentage (%) kinase inhibition c-RAF” value is reported as 79% in experiment [3] (dendrimer conc. 1 μM), 81% in experiment [3] (dendrimer conc. 2 μM), 64% in experiment [3] (dendrimer conc. 250 nm) and 74% in experiment [3] (dendrimer conc. 500 nm). The “PI3K beta % inhibition” value in experiment [4] (20 μM final concentration) was “approx. 92%”. Moreover, the “Percentage (%) kinase inhibition PI3K P110β” value was found to be 39% in experiment [4] (dendrimer conc. 1 μM), 53% in experiment [4] (dendrimer conc. 2 μM), 28% in experiment [4] (dendrimer conc. 250 nm) and 34% in experiment [4] (dendrimer conc. 500 nm). Besides, the “% Kinase inhibition PKB beta” value in experiment [5] (20 μM, relative to control) came to 85%. In addition, the “Percentage (%) kinase inhibition PKB beta” value is given as 68% in experiment [5] (dendrimer conc. 1 μM), 70% in experiment [5] (dendrimer conc. 2 μM), 53% in experiment [5] (dendrimer conc. 250 nm) and 66% in experiment [5] (dendrimer conc. 500 nm). In experiment [6] (20 μM, relative to control), the “% Kinase inhibition PKB gamma” value is 96%. For the same compound, the “Percentage (%) kinase inhibition PKB gamma” value amounted to 93% in experiment [6] (dendrimer conc. 1 μM), 92% in experiment [6] (dendrimer conc. 2 μM), 94% in experiment [6] (dendrimer conc. 250 nm) and 98% in experiment [6] (dendrimer conc. 500 nm). For the same compound, the “% Kinase inhibition ERK2” value in experiment [7] (20 μM, relative to control) was 37%.

The record behind these values is patent US20120277161A1, “INHIBITION OF MULTIPLE CELL ACTIVATION PATHWAYS” (INTER-K PTY LIMITED, priority 2009, published 2012).
